In a melting point compilation (Tetko et al.; mined from patent text by program, amines drawn as free bases though some values may be those of a salt):

First: C[C@@H](c1ncncc1F)[C@@](Cn1cncn1)(OP(=O)(OCc1c(F)cccc1Cl)OCc1c(F)cccc1Cl)c1ccc(F)cc1F
Second: CC(C)OC(=O)c1ccccc1SN(C(=O)NC(=O)c1ccccc1Cl)c1ccc(OC(F)(F)F)cc1
The melting point of the first is lower: 140 to 141 °C for the first, 143 to 144 °C for the second.

Compared with `CC1(C)c2ccccc2S(=O)(=O)N1CCCCl`, `CCOc1nn(C(=S)Oc2ccccc2)c(=O)n1C` is higher in melting point: 107 °C for the first, 123 °C for the second.

Compared with `O=C(C[C@@H](O)C(F)(F)F)N[C@H]1CC[C@H](CCN2CCN(c3nccc4c3CCO4)CC2)CC1`, `Cc1cccc(N2CCN(CCC3CN(C)C(=O)O3)CC2)c1` (stereo not given) is lower in melting point: 207 °C for the first, 72 to 74 °C for the second.

Compared with `Nc1ccc2c(=O)n3c(nc2c1)C(=Cc1ccc(O)c(O)c1)CC3`, `NS(=O)(=O)c1cccc2c1c([N+](=O)[O-])cc1nc(O)c(O)nc12` is higher in melting point: 263 to 265 °C for the first, 360 °C for the second.

First: FC(F)(F)c1cccc(C2=CCNc3ccnn32)c1
Second: O=C1OC(=O)c2cc3ccc(C(F)(F)F)cc3c3cccc1c23
The melting point of the first is lower: 61 to 64 °C for the first, 310 to 312 °C for the second.

First: CCOP(=O)(OCC)C(OC)c1ccc(N)cc1 (stereo not given)
Second: C=CCc1ccc(C(NC(=O)OC(C)(C)C)C(=O)OC)cc1 (stereo not given)
The melting point of the first is higher: 100 to 101 °C for the first, 60.6 to 62 °C for the second.

First: O=S(CCCCCOc1ccc(C2=C(c3ccccc3)CCCc3ccccc32)cc1)CCCC(F)(F)C(F)(F)F (stereo not given)
Second: CCCCOP(=O)(OCCCC)OCN1C(=O)NC(c2ccccc2)(c2ccccc2)C1=O
The melting point of the first is higher: 114 to 116 °C for the first, 94.8 to 96.9 °C for the second.

Compared with `COc1cc2c(cc1OC)CN(c1nc(N)c3cc(OC)c(OC)cc3n1)CCC2`, `COc1ccc(C=CC(=O)Oc2cc3c(cc2OC)CC2c4cc(OC)c(OC)cc4CCN2C3)cc1OC` (stereo not given) is higher in melting point: 122 to 124 °C for the first, 224 to 225 °C for the second.

First: BrCCCc1ccc(C=Cc2cc3ccccc3s2)s1
Second: Cc1nc(-c2ccccc2)ncc1CBr
The melting point of the first is higher: 109 to 111 °C for the first, 65 to 66 °C for the second.

First: N#CN1CCN(c2n[nH]c3ccccc23)CC1
Second: O=C(OCc1ccccc1)N1CCN(c2cc(=O)[nH]cn2)CC1
The melting point of the first is lower: 120 to 122 °C for the first, 247 to 249 °C for the second.

`CC(C)CC(C(N)=O)N1C(=O)c2ccccc2C1=O` (stereo not given) and `CSCc1nc(C(C)(C)O)c(C(=O)O)n1Cc1ccc(-c2ccccc2-c2nnn[nH]2)cc1` cannot be ordered by melting point: 173 to 176 °C for the first, 172 to 181 °C for the second.

First: O=C(CCn1cnc2c(=O)[nH]cnc21)NCCCN1CCOCC1
Second: Cn1c(C=O)nnc1NCCCOc1cccc(CN2CCCCC2)c1
The melting point of the first is lower: 145 to 148 °C for the first, 157 to 158 °C for the second.

First: CCOC(=O)c1nc(C=Cc2ccc(Cl)cc2)oc1C
Second: CCOC(=O)CCc1sc(N)nc1-c1ccc(Cl)cc1
The melting point of the first is lower: 105 to 106 °C for the first, 160 to 161 °C for the second.

First: COC(=O)c1cc(CCc2cc(OC)ccc2OC)ccc1NC(C)=O
Second: CCOC(=O)c1cc(-c2ccc(OC)cc2)n(-c2ccc(OC)cc2)n1
The melting point of the first is lower: 81 to 83 °C for the first, 97 to 98 °C for the second.

First: C=Cc1ccc(C=CC#N)cc1
Second: N#Cc1ccc(-c2ccc(Cl)cc2Cl)c(F)c1
The melting point of the first is lower: 45.8 °C for the first, 65 to 67 °C for the second.

Compared with `C=C(C(=O)c1ccc(C(=O)O)cc1)c1ccc(OC)c(-c2cccs2)c1`, `COC(=O)COc1ccc(-c2ccc(C(=O)O)cc2)cc1-c1ccc2c(c1)C(C)(C)CCC2(C)C` is lower in melting point: 163 to 164 °C for the first, 104 to 106 °C for the second.

First: CC1(C)OC(c2ccc(S(C)(=O)=O)cc2)=C(c2cc3ccccc3o2)C1=O
Second: CS(=O)(=O)c1ccc(-n2nc(C(F)F)cc2-c2nc3cccc(F)c3s2)cc1
The melting point of the first is lower: 140 to 141 °C for the first, 193 to 195 °C for the second.

Compared with `COc1ccc2c(c1)C(=O)c1c-2c(N2CCN(C(=O)CCCl)CC2)nc2ccccc12`, `COc1ccccc1N1CCN(CCc2[nH]c(=O)[nH]c2-c2ccc(F)cc2)CC1` is higher in melting point: 162 to 163 °C for the first, 213 to 214 °C for the second.

First: Cc1cc(Br)ccc1C1(CBr)OCCO1
Second: O=C1c2cc([N+](=O)[O-])ccc2OCCC1Br (stereo not given)
The melting point of the first is lower: 86 °C for the first, 115 to 118 °C for the second.

Compared with `CSc1nc(N)n2nc(-c3ccco3)nc2n1`, `CCCNc1nc(N)nc(N(CCC)c2ccc(OC)c(F)c2)n1` is lower in melting point: 238 to 240 °C for the first, 53 to 55 °C for the second.

Compared with `O=C(NC1C2CC3CC(C2)CC1C3)C1CCCCN1Cc1ccccn1` (stereo not given), `O=C(Nc1ccccc1S(=O)(=O)N1CCCCC1)N[C@@H](Cc1ccc(Nc2nccc3ccncc23)cc1)C(=O)O` is higher in melting point: 126 to 127 °C for the first, 179 °C for the second.

Compared with `COc1ccc(C=O)cc1OCC(F)F`, `CCOC(=O)c1cc2cc(OC)c(OC)cc2s1` is higher in melting point: 66 to 68 °C for the first, 84 to 85 °C for the second.

First: COc1ccc(Cn2c(=O)[nH]c3cc(Cl)ccc3c2=O)cc1
Second: CCC(NS(C)(=O)=O)c1ccc(Cl)c2nc3n(c12)CCCN3c1ccc(Cl)cc1Cl (stereo not given)
The melting point of the first is higher: 254 to 256 °C for the first, 125 to 126 °C for the second.

First: CCOP(=O)(OCC)c1nc(N(CC)CC)nc(N(CC)CC)n1
Second: CCO[C@@H]1C(C(=O)Nc2ccc(Cl)cc2)=C(C)OC(OCC)(OCC)[C@H]1C (relative stereo)
The melting point of the first is lower: 45 to 46 °C for the first, 104 to 106 °C for the second.

First: CCCNC(=O)N(C)C1CCN(c2ncnc3cc(OC)c(OC)cc23)CC1
Second: COc1cc(Nc2nccc(-c3ccc(N4CCC(O)CC4)nc3)n2)cc(OC)c1OC
The melting point of the first is higher: 209 to 211 °C for the first, 127 to 128 °C for the second.

First: CCNC(=O)[C@@H]1C[C@H](SCc2ccc(OC)cc2)CN1
Second: CCOC(=O)N1Cc2ccnnc2C(NN=C(C)C)C1 (stereo not given)
The melting point of the first is lower: 67 to 68 °C for the first, 171 to 174 °C for the second.

First: O=C(Nc1cc(Cl)cc(C(F)(F)F)c1)Oc1ccc([N+](=O)[O-])cc1
Second: CCCCCS(=O)(=O)NC(=O)/C=C/c1cc(C2CC2)nn1Cc1ccc(C(F)(F)F)cc1Cl
The melting point of the first is higher: 144 to 146 °C for the first, 139 to 140 °C for the second.

First: Cc1noc(C)c1Cn1cc(N2C(=O)CN(CCOc3ccccc3)C2=O)cn1
Second: CCCOc1c(C)cc(Cl)c2c(=O)c3ccccc3sc12
The melting point of the first is higher: 117 to 118 °C for the first, 101 to 103 °C for the second.

First: CCc1ccccc1C(Cc1ccccc1NC(=O)C(C)(C)C)NC (stereo not given)
Second: CC(C)(C)C(=O)CC(c1ccc(Cl)cc1)S(=O)(=O)c1ccccc1 (stereo not given)
The melting point of the first is lower: 80 to 81.5 °C for the first, 145 to 146 °C for the second.

Compared with `CCCCc1nc(C(O)C(C)C)c(C#N)n1Cc1ccc(-c2ccccc2-c2nnnn2C(c2ccccc2)(c2ccccc2)c2ccccc2)cc1` (stereo not given), `CCN(CC)C(=O)c1cc(-c2ccccc2)c(=O)[nH]c1-c1c(Cl)cccc1C#N` is higher in melting point: 127 to 128 °C for the first, 237 to 240 °C for the second.

First: Oc1ccc(Nc2ncc3ncc(-c4ccccc4O)cc3n2)cc1
Second: Nc1nccc(-c2c[nH]c3nccc(CCc4ccccc4)c23)n1
The melting point of the first is higher: 262 to 264 °C for the first, 196 to 198 °C for the second.

First: OC1(OCc2ccccc2)C(Cl)=C(Cl)C=CC1OCc1ccccc1 (stereo not given)
Second: O=C(O)c1cnc(Cn2cc(C3c4ccccc4C=Cc4ccccc43)c(=S)[nH]c2=O)s1
The melting point of the first is lower: 74 to 75 °C for the first, 198 to 200 °C for the second.

First: O=C(O)C1CCCCC1n1nc(-c2c(-c3ccccc3)nn3ccccc23)ccc1=O (stereo not given)
Second: C1=CC(n2c(-c3ccc4c(c3)OCO4)nc3ccccc32)CCC1 (stereo not given)
The melting point of the first is higher: 164 °C for the first, 119 to 120 °C for the second.

Compared with `COCCOCn1c2ccccc2c2c(C)c(C(=O)OC)sc21`, `CCOC(=O)C1=C(COCC(N)=O)NC(C)=C(C(=O)OC)C1c1ccccc1Cl` (stereo not given) is higher in melting point: 85.4 to 86 °C for the first, 127 to 128 °C for the second.

Compared with `CS(=O)c1ccc(C2CCCC(=O)N2c2ccc(Cl)cc2)cc1` (stereo not given), `COC(=O)C1=Cc2cc(Br)ccc2N(c2ccccc2)CC1` is lower in melting point: 142 to 165 °C for the first, 104 to 106 °C for the second.

First: CC(C)(C)OC(=O)N1CCCN(c2c(F)c(F)nc(F)c2F)CC1
Second: O=c1[nH]c2ccc(CCN3CCN(c4cc(O)cc5cccnc45)CC3)cc2o1
The melting point of the first is lower: 55 to 59 °C for the first, 200 °C for the second.

Compared with `CCC1c2nc[nH]c2CCN1C(=O)NC(C)C` (stereo not given), `CN(C)Cc1cn(CCC(=O)O)c(=S)n1C1CCc2ccccc2C1` (stereo not given) is higher in melting point: 170 °C for the first, 171 to 174 °C for the second.

Compared with `COc1cc2ncc(C#N)c(Cl)c2cc1[N+](=O)[O-]`, `C=C(C)C(=O)c1ccc(OC)c(Cl)c1Cl` is lower in melting point: 214 to 215 °C for the first, 59 °C for the second.

First: CCc1onc(-c2ccc(Cl)cc2)c1CCC(=O)O
Second: O=C(O)CCCC(=O)c1ccc(O)c(CCC(=O)O)n1
The melting point of the first is higher: 164 to 165 °C for the first, 134 to 136 °C for the second.

First: CCc1c(-c2cccnn2)ssc1=S
Second: CC1(C(F)(F)F)NC(c2ncccc2C(=O)O)=NC1=O (stereo not given)
The melting point of the first is lower: 130 °C for the first, 180 to 184 °C for the second.

First: COC(=O)C1=C(C)NN=C(c2cccs2)C1c1cccc(Cl)c1 (stereo not given)
Second: C=C1NC(Nc2ccccc2)=C(C(=O)OCC)C(NN)=C1C#N
The melting point of the first is higher: 191 °C for the first, 174 to 176 °C for the second.

First: Cn1nc(CO)cc1OCCCN1CCN(c2cccc3sccc23)CC1
Second: CNC(=S)C1(c2cnc3ccccc3c2)CCCCC1=CC#N (stereo not given)
The melting point of the first is higher: 124 to 126 °C for the first, 108 to 111 °C for the second.

First: O=C1CC2C1CC(O)C2Cl (stereo not given)
Second: CC1C(=NO)CC2(O)C3Cc4ccc(O)c5c4C2(CCN3CC2CC2)C1O5 (stereo not given)
The melting point of the first is lower: 69 to 71 °C for the first, 172 to 173 °C for the second.

Compared with `CC(=O)Nc1ccc(C2=NN(c3nnc(C)s3)[C@H](C)Cc3cc4c(cc32)OCO4)cc1C`, `Cc1c(C)c(N2Cc3cc(Cl)c(Cl)cc3C2)c(C)c2c1OC(C)(C)C2c1ccc(C(C)C)cc1` (stereo not given) is lower in melting point: 267 to 269 °C for the first, 148 to 150 °C for the second.

First: Cc1ccc2c(c1)C(c1ncnc3c1cnn3C1CCCC1)C(=O)N2 (stereo not given)
Second: COc1ccc(C2(C#Cc3cc(C(=O)O)cs3)CCC(=O)CC2)cc1OC1CCCC1
The melting point of the first is higher: over 300 °C for the first, 75 to 76 °C for the second.

First: CC(C)COC(=O)Oc1ccc(S(=O)(=O)c2ccc(S(N)(=O)=O)s2)cc1
Second: Cc1ccc(C(=O)NCCC(=O)OCc2ccccc2)c(NC(=O)CCCCNC(=O)OC(C)(C)C)c1
The melting point of the first is lower: 111 to 112 °C for the first, 112 to 113 °C for the second.

Compared with `Cc1[nH]c(C=O)c(C)c1CCCO`, `Cc1c(N)ccc2[nH]cc(CCCO)c12` is higher in melting point: 85 °C for the first, 141 to 142 °C for the second.

Compared with `CCCOc1ccc(-c2c(C(=O)OC)c(C(=O)OC)c(O)c3cc(OC)c(OC)c(OC)c23)cc1OCCC`, `N#CCCNC(=O)c1cccc(-c2ccc3occ(-c4ccc(Cl)cc4Cl)c3c2)c1` is higher in melting point: 132 °C for the first, 159 to 161 °C for the second.

Compared with `CC(=O)Nc1c(N)cc(C(=O)O)c(O)c1Br`, `COC(=O)n1cc(C=O)c(-c2ccc([N+](=O)[O-])o2)n1` is lower in melting point: 210 to 211 °C for the first, 187 to 189 °C for the second.

Compared with `C/C(=C\CCC1(C)CCc2cc(O[Si](C)(C)C(C)(C)C)c(C)c(C)c2O1)CCl` (stereo not given), `ClCCN(CCCl)CCOc1cccc(Nc2c3ccccc3nc3c(OCCN(CCCl)CCCl)cccc23)c1` is higher in melting point: 56 to 58 °C for the first, 108 to 109 °C for the second.
